Experiments:
NCI-H1975 [1] = assay: Cytotoxicity against human NCI-H1975 cells by MTT assay; format: functional, cell-based
NCI-H1299 [2] = assay: Cytotoxicity against human NCI-H1299 cells by MTT assay; format: functional, cell-based
A549 [3] = assay: Cytotoxicity against human A549 cells by MTT assay; format: functional, cell-based
A549 [4] = assay: Induction of apoptosis in human A549 cells assessed as late apoptotic cells at 0.3 uM after 48 hrs by Annexin-V-FITC/propidium iodide staining based flow cytometric method (reference value: 3.4 to 4.76%); format: functional
A549 [5] = assay: Induction of apoptosis in human A549 cells assessed as late apoptotic cells at 3 uM after 48 hrs by Annexin-V-FITC/propidium iodide staining based flow cytometric method (reference value: 3.4 to 4.76%); format: functional
NCI-H1975 [6] = assay: Induction of apoptosis in human NCI-H1975 cells assessed as late apoptotic cells at 3 uM after 48 hrs by Annexin-V-FITC/propidium iodide staining based flow cytometric method (reference value: 2.92 to 4.29%); format: functional
NCI-H1299 [7] = assay: Induction of apoptosis in human NCI-H1299 cells assessed as late apoptotic cells at 3 uM after 48 hrs by Annexin-V-FITC/propidium iodide staining based flow cytometric method (reference value: 2.69%); format: functional
NCI-H1299 [8] = assay: Induction of apoptosis in human NCI-H1299 cells after 48 hrs by Annexin-V-FITC/propidium iodide staining based flow cytometric method; format: functional, cell-based
A549 [9] = assay: Induction of apoptosis in human A549 cells after 48 hrs by Annexin-V-FITC/propidium iodide staining based flow cytometric method; format: functional, cell-based
NCI-H1975 [10] = assay: Induction of apoptosis in human NCI-H1975 cells assessed as early apoptotic cells at 3 uM after 48 hrs by Annexin-V-FITC/propidium iodide staining based flow cytometric method (reference value: 2.5 to 3.56%); format: functional
NCI-H1299 [11] = assay: Induction of apoptosis in human NCI-H1299 cells assessed as late apoptotic cells at 0.3 uM after 48 hrs by Annexin-V-FITC/propidium iodide staining based flow cytometric method (reference value: 2.69%); format: functional
NCI-H1975 [12] = assay: Induction of apoptosis in human NCI-H1975 cells assessed as early apoptotic cells at 0.3 uM after 48 hrs by Annexin-V-FITC/propidium iodide staining based flow cytometric method (reference value: 2.5 to 3.56%); format: functional
NCI-H1975 [13] = assay: Induction of apoptosis in human NCI-H1975 cells assessed as late apoptotic cells at 0.3 uM after 48 hrs by Annexin-V-FITC/propidium iodide staining based flow cytometric method (reference value: 2.92 to 4.29%); format: functional
NCI-H1299 [14] = assay: Induction of apoptosis in human NCI-H1299 cells assessed as early apoptotic cells at 3 uM after 48 hrs by Annexin-V-FITC/propidium iodide staining based flow cytometric method (reference value: 1.91%); format: functional
A549 [15] = assay: Induction of apoptosis in human A549 cells assessed as early apoptotic cells at 3 uM after 48 hrs by Annexin-V-FITC/propidium iodide staining based flow cytometric method (reference value: 1.04 to 2.73%); format: functional
A549 [16] = assay: Induction of apoptosis in human A549 cells assessed as early apoptotic cells at 0.3 uM after 48 hrs by Annexin-V-FITC/propidium iodide staining based flow cytometric method (reference value: 1.04 to 2.73%); format: functional
NCI-H1975 [17] = assay: Induction of apoptosis in human NCI-H1975 cells after 48 hrs by Annexin-V-FITC/propidium iodide staining based flow cytometric method; format: functional, cell-based
NCI-H1299 [18] = assay: Induction of apoptosis in human NCI-H1299 cells assessed as early apoptotic cells at 0.3 uM after 48 hrs by Annexin-V-FITC/propidium iodide staining based flow cytometric method (reference value: 1.91%); format: functional
NCI-H1299 [19] = assay: Induction of apoptosis in human NCI-H1299 cells assessed as early apoptotic cells at 0.1 uM after 48 hrs by Annexin-V-FITC/propidium iodide staining based flow cytometric method (reference value: 1.91%); format: functional
NCI-H1975 [20] = assay: Induction of apoptosis in human NCI-H1975 cells assessed as late apoptotic cells at 0.1 uM after 48 hrs by Annexin-V-FITC/propidium iodide staining based flow cytometric method (reference value: 2.92 to 4.29%); format: functional
A549 [21] = assay: Induction of apoptosis in human A549 cells assessed as early apoptotic cells at 0.1 uM after 48 hrs by Annexin-V-FITC/propidium iodide staining based flow cytometric method (reference value: 1.04 to 2.73%); format: functional
NCI-H1299 [22] = assay: Induction of apoptosis in human NCI-H1299 cells assessed as late apoptotic cells at 0.1 uM after 48 hrs by Annexin-V-FITC/propidium iodide staining based flow cytometric method (reference value: 2.69%); format: functional
A549 [23] = assay: Induction of apoptosis in human A549 cells assessed as late apoptotic cells at 0.1 uM after 48 hrs by Annexin-V-FITC/propidium iodide staining based flow cytometric method (reference value: 3.4 to 4.76%); format: functional
NCI-H1975 [24] = assay: Induction of apoptosis in human NCI-H1975 cells assessed as early apoptotic cells at 0.1 uM after 48 hrs by Annexin-V-FITC/propidium iodide staining based flow cytometric method (reference value: 2.5 to 3.56%); format: functional

Compound	IC50 (NCI-H1975 [1]) [µM]	IC50 (NCI-H1299 [2]) [µM]	IC50 (A549 [3]) [µM]	further results
COC(=O)/C=C1\CC[C@H]2[C@@H]([C@@H](O)C(=O)[C@@H]3[C@]2(C)CCC[C@]3(C)C(=O)OC)[C@H]1C	> 10	> 10	> 10	
C/C=C(\C)C(=O)O[C@H]1CC[C@@]2(C)[C@@H](C(=O)[C@H](O)[C@H]3[C@@H](C)/C(=C/C(=O)OCCNC)CC[C@@H]32)[C@@]1(C)C(=O)OC	1.1	1.2	1.4	
COC(=O)[C@@]1(C)CCC[C@@]2(C)[C@H]1CC(=O)[C@H]1[C@@H](C)/C(=C/C(=O)OCCN(C)C)CC[C@@H]12	2.1	1.9	3.4	
C/C=C(\C)C(=O)O[C@H]1CC[C@@]2(C)[C@@H](CC(=O)[C@H]3[C@@H](C)/C(=C/C(=O)OCCNC)CC[C@@H]32)[C@@]1(C)C(=O)OC	0.4	0.9	0.5	Activity (A549 [4]): 3.96%; Activity (A549 [5]): 12.24%; Activity (NCI-H1975 [6]): 7.56%; Activity (NCI-H1299 [7]): 8.14%; Activity (NCI-H1299 [8]): Dose-dependent effect; Activity (A549 [9]): Dose-dependent effect; Activity (NCI-H1975 [10]): 5.2%; Activity (NCI-H1299 [11]): 3.24%; Activity (NCI-H1975 [12]): 2.14%; Activity (NCI-H1975 [13]): 3.02%; Activity (NCI-H1299 [14]): 16.48%; Activity (A549 [15]): 7.27%; Activity (A549 [16]): 1.87%; Activity (NCI-H1975 [17]): Dose-dependent effect; Activity (NCI-H1299 [18]): 4.52%
C/C=C(\C)C(=O)O[C@H]1CC[C@@]2(C)[C@@H]([C@@H](O)C(=O)[C@H]3[C@@H](C)/C(=C/C(=O)OC)CC[C@@H]32)[C@@]1(C)C(=O)OC	> 10	> 10	> 10	
CNCCOC(=O)/C=C1\CC[C@H]2[C@@H](C(=O)[C@H](O)[C@@H]3[C@]2(C)CCC[C@]3(C)C(=O)OC)[C@H]1C	3.3	1.5	2.1	
CC[C@@]1(O)C(=O)OCc2c1cc1n(c2=O)Cc2cc3ccccc3nc2-1 [CAMPTOTHECIN]	1.2	0.8	0.7	Activity (NCI-H1299 [19]): 13.04%; Activity (A549 [4]): 14.14%; Activity (NCI-H1975 [20]): 6.73%; Activity (A549 [21]): 14.17%; Activity (NCI-H1299 [8]): Dose-dependent effect; Activity (A549 [9]): Dose-dependent effect; Activity (NCI-H1299 [11]): 9.44%; Activity (NCI-H1975 [12]): 7.9%; Activity (NCI-H1975 [13]): 31.47%; Activity (NCI-H1299 [22]): 5.22%; Activity (A549 [23]): 10.25%; Activity (A549 [16]): 20.33%; Activity (NCI-H1975 [17]): Dose-dependent effect; Activity (NCI-H1975 [24]): 5.54%; Activity (NCI-H1299 [18]): 13.16%
COC(=O)/C=C1\CC[C@H]2[C@@H](C(=O)C[C@@H]3[C@]2(C)CC[C@H](OC(C)=O)[C@]3(C)C(=O)OC)[C@H]1C	> 10	> 10	> 10	
COC(=O)[C@@]1(C)CCC[C@@]2(C)[C@H]1C[C@H](O)[C@H]1[C@@H](C)/C(=C/C(=O)OCCN(C)C)CC[C@@H]12	2.6	2.4	3.1	
COC(=O)[C@@]1(C)CCC[C@@]2(C)[C@H]1[C@@H](O)C(=O)[C@H]1[C@@H](C)/C(=C/C(=O)OCCN(C)C)CC[C@@H]12	5.9	3.8	4.8	
CNCCOC(=O)/C=C1\CC[C@H]2[C@@H]([C@@H](O)C(=O)[C@@H]3[C@]2(C)CCC[C@]3(C)C(=O)OC)[C@H]1C	1	1.2	0.9	
COC(=O)CC1=CC[C@H]2[C@@H](C(=O)[C@H](O)[C@@H]3[C@]2(C)CCC[C@]3(C)C(=O)OC)[C@H]1C	> 10	> 10	> 10	
COC(=O)[C@@]1(C)CCC[C@@]2(C)[C@H]1C(=O)[C@H](O)[C@H]1[C@@H](C)/C(=C/C(=O)OCCN(C)C)CC[C@@H]12	> 10	> 10	> 10	
COC(=O)/C=C1\CC[C@H]2[C@@H](C(=O)[C@H](O)[C@@H]3[C@]2(C)CCC[C@]3(C)C(=O)OC)[C@H]1C	> 10	> 10	> 10	

Reference: ChEMBL document CHEMBL4020777, “Cytotoxic and apoptosis-inducing activities against human lung cancer cell lines of cassaine diterpenoids from the bark of Erythrophleum fordii” (Bioorg Med Chem Lett, 2017)
